Here are results for 15 compounds from patent US20030050307A1, “Novel indole derivatives” (H. Lundbeck A/S, priority 1999, published 2003).

The target of test [1] is T1, human cloned dopamine D4.2-receptors (Homo sapiens, UniProt P21917, DEL265-296).
T1 construct: expressed in transfected cells; host or cells: CHO cells
T1 sequence (P21917 with tags, fused parts or gaps DEL265-296): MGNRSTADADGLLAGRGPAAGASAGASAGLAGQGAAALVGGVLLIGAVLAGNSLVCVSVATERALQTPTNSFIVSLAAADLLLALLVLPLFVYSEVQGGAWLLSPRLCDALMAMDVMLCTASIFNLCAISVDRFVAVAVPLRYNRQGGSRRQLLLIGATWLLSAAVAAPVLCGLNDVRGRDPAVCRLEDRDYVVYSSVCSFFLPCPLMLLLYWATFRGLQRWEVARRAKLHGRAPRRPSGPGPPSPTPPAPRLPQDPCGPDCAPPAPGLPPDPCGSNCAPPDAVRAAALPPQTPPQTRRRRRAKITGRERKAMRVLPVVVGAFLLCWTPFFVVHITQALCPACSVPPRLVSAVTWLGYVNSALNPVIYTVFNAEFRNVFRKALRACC
The test is described as follows: Inhibition of the binding of 3H-YM-09151-2 to human dopamine D4 receptors. The following applies: at 100 nM; [3H]YM-09151-2 0.06 nM; CHO-cell membranes, human D4.2. How it is done: Inhibition of the Binding of ^3H-YM-09151-2 to Human Dopamine D4 Receptors
By this method, the inhibition by drugs of the binding of [^3H]YM-09151-2 (0.06 nM) to membranes of human cloned dopamine D4.2-receptors expressed in CHO-cells is determined in vitro. Method modified from NEN Life Science Products, Inc., technical data certificate PC2533-10/96.

Test [2] concerns the target T2, cloned human 5-HT1A-receptors (Homo sapiens, UniProt P08908).
T2 construct: expressed in transfected cells; host or cells: HeLa cells (HA7)
T2 sequence (P08908 1-422): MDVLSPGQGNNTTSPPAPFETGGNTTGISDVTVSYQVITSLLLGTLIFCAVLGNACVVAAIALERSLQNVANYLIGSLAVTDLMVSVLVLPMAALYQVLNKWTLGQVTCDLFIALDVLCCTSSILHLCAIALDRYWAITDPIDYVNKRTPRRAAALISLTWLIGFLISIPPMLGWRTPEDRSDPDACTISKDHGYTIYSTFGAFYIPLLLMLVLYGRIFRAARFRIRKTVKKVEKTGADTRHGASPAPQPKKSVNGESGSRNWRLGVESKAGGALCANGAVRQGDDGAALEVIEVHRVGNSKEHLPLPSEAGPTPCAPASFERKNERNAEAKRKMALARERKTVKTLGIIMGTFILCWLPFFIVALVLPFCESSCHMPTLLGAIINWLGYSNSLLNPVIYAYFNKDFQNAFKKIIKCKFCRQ
The test is described as follows: Inhibition of 3H-5-CT binding to human 5-HT1A receptors. The following applies: at 50 nM; transfected HeLa cells (HA7); 15 minutes at 37° C., pH 7.7. How it is done: The affinity of the compounds of the invention to 5-HT1A receptors was determined by measuring the inhibition of binding of a radioactive ligand at 5-HT1A-receptors as described in the following test:
Inhibition of ^3H-5-CT Binding to Human 5-HT1A Receptors.
By this method, the inhibition by drugs of the binding of the 5-HT1A-agonist ^3H-5-carboxamido tryptamine (^3H-5-CT) to cloned human 5-HT1A-receptors stably expressed in transfected HeLa cells (HA7) (Fargin, A. et al. J. Biol. Chem. 1989, 264, 14848) is determined in vitro. The assay was performed as a modification of the method described by Harrington, M. A. et al. J. Pharmacol. Exp. Ther. 1994, 268, 1098. Human 5-HT1A-receptors (40 μg of cell homogenate) were incubated for 15 minutes at 37° C. in 50 mM Tris buffer at pH 7.7 in the presence of ^3H-5-CT. Non-specific binding was determined by including 10 μM of metergoline. The reaction was terminated by rapid filtration through Unifilter GF/B filters on a Tomtec Cell Harvester. Filters were counted in a Packard Top Counter.

With `Clc1ccc(SCCCN2CCN(c3cccc4[nH]ccc34)CC2)cc1Cl` [Compound 5ag, 4-{4-[3-(3,4-Dichloro-phenylsulfanyl)-propyl]-piperazin-1-yl}-1H-indole], in test [1], the inhibition (in general, the drop in the measured response relative to a control, in per cent) at 0.1 µM is 95%. The inhibition at 0.05 µM in test [2] was 93%.
The like results for `Cc1ccc(OCCCCN2CCN(c3cccc4[nH]ccc34)CC2)c(C)c1` [Compound 5ah, 4-{4-[4-(2,4-Dimethyl-phenoxy)-butyl]-piperazin-1-yl}-1H-indole] were, in that order, 90% and 86%.
For `CCc1ccccc1OCCCCN1CCN(c2cccc3[nH]ccc23)CC1` [Compound 5ai, 4-{4-[4-(2-Ethyl-phenoxy)-butyl]-piperazin-1-yl}-1H-indole], in that order: 90% and 93%.
As to `c1ccc(SCCCCN2CCN(c3cccc4[nH]ccc34)CC2)cc1` [Compound 5aj, 4-[4-(4-Phenylsulfanyl-butyl)-piperazin-1-yl]-1H-indole], the inhibition at 0.1 µM in test [1] was found to be 100%. For the same compound, the inhibition at 0.05 µM in test [2] came out at 77%.
The like results for `Cc1ccc(Cl)c(OCCCCN2CCN(c3cccc4[nH]ccc34)CC2)c1` [Compound 5ak, 4-{4-[4-(2-Chloro-5-methyl-phenoxy)-butyl]-piperazin-1-yl}-1H-indole] were, in that order, 93% and 91%.
The like results for `Clc1ccc(Cl)c(SCCN2CCN(c3cccc4[nH]ccc34)CC2)c1` [Compound 5al, 4-{4-[2-(2,5-Dichloro-phenylsulfanyl)-ethyl]-piperazin-1-yl}-1H-indole] were, in that order, 96% and 92%.
For `Clc1cccc(SCCN2CCN(c3cccc4[nH]ccc34)CC2)c1` [Compound 5am, 4-{4-[2-(3-Chloro-phenylsulfanyl)-ethyl]-piperazin-1-yl}-1H-indole], in that order: 83% and 93%.
Turning to `Clc1ccccc1SCCN1CCN(c2cccc3[nH]ccc23)CC1` [Compound 5an, 4-{4-[2-(2-Chloro-phenylsulfanyl)-ethyl]-piperazin-1-yl}-1H-indole], the inhibition at 0.1 µM in test [1] was 83%. For the same compound, the inhibition at 0.05 µM in test [2] is 91%.
The like results for `Clc1cccc(SCCCN2CCN(c3cccc4[nH]ccc34)CC2)c1` [Compound 5ao, 4-{4-[3-(3-Chloro-phenylsulfanyl)-propyl]-piperazin-1-yl}-1H-indole] were, in that order, 102% and 100%.
With `N#Cc1ccc(OCCCCN2CCN(c3cccc4[nH]ccc34)CC2)c(Cl)c1` [Compound 5ap], the “Inhibition of 3H-YM-09151 binding % inhibition at 100 nM” value in test [1] turned out to be 106%. For the same compound, in test [2], the “Inhibition of 3H-5-CT Binding % inhibition at 50 nM” value was 100%.
Take `Clc1cccc(SCCCCN2CCN(c3cccc4[nH]ccc34)CC2)c1` [Compound 5aq, 4-{4-[4-(3-Chloro-phenylsulfanyl)-butyl]-piperazin-1-yl}-1H-indole]: the inhibition at 0.1 µM in test [1] is 98%. In addition, the inhibition at 0.05 µM in test [2] came out at 100%.
For `Clc1ccccc1SCCCCN1CCN(c2cccc3[nH]ccc23)CC1` [Compound 5ar, 4-{4-[4-(2-Chloro-phenylsulfanyl)-butyl]-piperazin-1-yl}-1H-indole], in that order: 98% and 104%.
For `Cc1ccc(SCCCN2CCN(c3cccc4[nH]ccc34)CC2)cc1C` [Compound 5as, 4-{4-[3-(3,4-Dimethyl-phenylsulfanyl)-propyl]-piperazin-1-yl}-1H-indole], in that order: 99% and 103%.
For `N#Cc1cccc(OCCCCN2CCN(c3cccc4[nH]ccc34)CC2)c1` [Compound 5at, 3-{4-[4-(1H-Indol-4-yl)-piperazin-1-yl]-butoxy}-benzonitrile], in that order: 95% and 92%.
For `Clc1ccc(Cl)c(OCCCCN2CCN(c3cccc4[nH]ccc34)CC2)c1` [Compound 5au, 4-{4-[4-(2,5-Dichloro-phenoxy)-butyl]-piperazin-1-yl}-1H-indole], the inhibition at 0.1 µM in test [1] came out at 97%. The inhibition at 0.05 µM in test [2] stood at 99%.
